Results published in patent US5096924A, “Anticancer antibiotic MI43-37F11 substance” (501 Azidan Hojin Biseibutsu Kagaku Kenkyu Kai, priority 1989, dated 1992).
≈ marks a conversion by molar mass, not a printed value. Entries after “also recorded” stand apart in the source; their conditions may differ.

Experiments:
mouse Leukemia L1210 = test: Inhibition of proliferation of mouse leukemia L1210 cells; type: cell-based; conditions: 48 h; mouse leukemia L1210, 37° C, 2 days
Procedure: A cell suspension containing cells of mouse Leukemia L1210, mouse Leukemia P388, mouse Leukemia EL4, mouse IMC carcinoma or human lung cancer LX-1 cells in a culture medium containing 10% calf serum at a cell density of 1 x 10^5 cells/ml was prepared, and 200 μl-portion of the cell suspension so prepared was placed in a microplate and then added with a solution of MI43-37F11 substance at varying concentrations (dissolved in a mixture of water and dimethylsulfoxide (95:5)). The cell suspension containing the test compound added was subsequently incubated at 37° C for 2 days (but 5 days for the LX-1 cells).
After the incubation, the number of the cells of the L1210 cells, P388 cells, the EL4 cells and the IMC carcinoma cells in the treated groups was counted by means of Coulter-counter. The control group (untreated) of the cell suspension to which the test compound was not added was incubated in the same way as above and then the number of the cells was similarly counted.
Rate (%) of inhibition of the cell proliferation of the treated group against that of the control group (untreated) was evaluated. […]

peritoneal macrophages = test: Activation of peritoneal macrophages (production of O2-); type: in vivo, CDF1 mice; conditions: for Rate (%) of increase in production of O2^-: one day before harvest, control 100
Procedure: (3) Experiments for estimation of the activity of MI43-37F11 substance to activate peritoneal macrophages were conducted by the following procedure. Thus, one day before the harvest of the peritoneal macrophages, the antibiotic MI43-37F11 substance was intraperitoneally administered to CDF1 mice (8-week old, female, 3 mice in each group) at a dosage of 50 mg/kg, 12.5 mg/kg or 3.125 mg/kg. One day after the administration, the macrophages were harvested from the peritoneal cavity of the treated mice and placed into a culture medium present in a plastic dish (Falcone, No. 3002, […], a product of Decton Dikinson & Company) at the cell concentration of 1×10^6 cells/m(, followed by incubation of the macrophages. The incubated medium containing the macrophages was then added with 100 ng/ml of phorbol myristate acetate to elicite the macrophages for their production of O2 -. The amount of O2 - was determined by reductive reaction with cytochrome C. The control group of mice (untreated) received only intraperitoneal injection of physiological saline in place of the administration of MI43-37F11 substance before the harvest of the peritoneal macrophages was done. Assumed that the amount of O2 - as produced and liberated by the peritoneal macrophages which were harvested from the mice of the control group was amounting to 100, the rate of increase in the amount of O2 - as produced by the peritoneal macrophages of the mice of the treated group was evaluated. In other words, the rate (%) of increase in the production of O2 - by the peritoneal macrophages of the mice of the treated group was calculated according to the following equation; [formula] where T means the amount of O2^- produced by the peritoneal macrophages of the mice of the treated group and C means the amount of O2^- produced by the peritoneal macrophages of the control group (untreated).

interleukin-1 = test: Enhancement of the production of interleukin-1 in vivo (uptake of 3H-TdR by D10.G4.1 cells); set-up: species or system CDF1 mice
Procedure: (5) Experiments for estimation of the activity of the antibiotic MI43-37F11 substance to enhance the production of interleukin-1 in vivo was conducted by the following procedure. Thus, MI43-37F11 substance was orally administered to CDF1 mice (female, 6-week old) B at a dosage of 25 mg/kg. One day, 3 days, 5 days and […] the administration, peritoneal exudate cells (PEC) and spleen cells were respectively harvested from the mice of the treated group. The peritoneal exudate cells and spleen cells as harvested were independently divided into two classes, namely the class of the adherent cell which was adherent in its nature to the wall of a plastic dish and the class of the non-adherent cell. The whole peritoneal exudate cells (PEC), the adherent cells of PEC and the adherent cells of the spleen cell were separately suspended into aliquots of a culture medium to give a cell concentrations of 1×10^6 cells/well, 2×10^6 cells/well and 2.5×10^6 cells/well, respectively. After the incubation for 24 hours, the supernatants were collected by filtration of the incubated culture media and then assayed for their activity of interleukin-1 (IL-1) according to the method of Jonathan K. et al (see "Lymphokine Research" 3 (4), 175-182, (1984)). Namely, 100 μl of each supernatant obtained as above and Concanavalin A (to a final concentration of 2.5 μg/ml) were added to 100 μl of a cell suspension containing 1 x 10^5 cells/m(of D10.G4.1. cells which will proliferate in the presence of Concanavalin A plus interleukin-1 when the latter compounds are given. The resulting mixture was then incubated for 48 hours and then added with ^3 H-thymidine (^3 H-TdR), followed by further incubation for 16 hours. After this, the rate of uptake of ^3 H-TdR by the D10.G4.1. cells was determined in term of the radio-activity unit of c.p.m. The rate of uptake of ^3 H-TdR in the control group of mice (untreated) was also determined in the same manner as above.

Toxicity to mammalian = type: in vivo; conditions: general statement, no data

## COc1cc(O)c2c(=O)oc(CO)cc2c1 [MI43-37F11 substance]
Mouse Leukemia L1210
  IC50: 50 µg/mL (≈ 225 µM)
Peritoneal macrophages; 3.125 mg/kg i.p.
  Rate (%) of increase in production of O2^-: 105%
Peritoneal macrophages; 12.5 mg/kg i.p.
  Rate (%) of increase in production of O2^-: 127%
Peritoneal macrophages; 50 mg/kg i.p.
  Rate (%) of increase in production of O2^-: 255%
Peritoneal macrophages; summary in words
  increased production of O2- by peritoneal macrophages: effective
interleukin-1; adherent cell in PEC, 1 day after 25 mg/kg oral
  Uptake of 3H-TdR, T/C %: 165.8%
interleukin-1; adherent cell in PEC, 1 day after 25 mg/kg oral, control 10561 ± 1241, **
  Uptake of 3H-TdR, c.p.m. ± S.D.: 17510 ± 810 c.p.m.
interleukin-1; adherent cell in PEC, 3 days after 25 mg/kg oral
  Uptake of 3H-TdR, T/C %: 131.7%
interleukin-1; adherent cell in PEC, 3 days after 25 mg/kg oral, control 10561 ± 1241, **
  Uptake of 3H-TdR, c.p.m. ± S.D.: 13912 ± 1367 c.p.m.
interleukin-1; adherent cell in PEC, 5 days after 25 mg/kg oral
  Uptake of 3H-TdR, T/C %: 253.4%
interleukin-1; adherent cell in PEC, 5 days after 25 mg/kg oral, control 10561 ± 1241, ***
  Uptake of 3H-TdR, c.p.m. ± S.D.: 26759 ± 3601 c.p.m.
interleukin-1; adherent cell in PEC, 7 days after 25 mg/kg oral
  Uptake of 3H-TdR, T/C %: 167.0%
interleukin-1; adherent cell in PEC, 7 days after 25 mg/kg oral, control 10561 ± 1241, *
  Uptake of 3H-TdR, c.p.m. ± S.D.: 17639 ± 2699 c.p.m.
interleukin-1; adherent cell in spleen cells, 1 day after 25 mg/kg oral
  Uptake of 3H-TdR, T/C %: 83.3%
interleukin-1; adherent cell in spleen cells, 1 day after 25 mg/kg oral, control 2091 ± 481
  Uptake of 3H-TdR, c.p.m. ± S.D.: 1741 ± 352 c.p.m.
interleukin-1; adherent cell in spleen cells, 3 days after 25 mg/kg oral
  Uptake of 3H-TdR, T/C %: 232.8%
interleukin-1; adherent cell in spleen cells, 3 days after 25 mg/kg oral, control 2091 ± 481, **
  Uptake of 3H-TdR, c.p.m. ± S.D.: 4868 ± 497 c.p.m.
interleukin-1; adherent cell in spleen cells, 5 days after 25 mg/kg oral
  Uptake of 3H-TdR, T/C %: 102.3%
interleukin-1; adherent cell in spleen cells, 5 days after 25 mg/kg oral, control 2091 ± 481
  Uptake of 3H-TdR, c.p.m. ± S.D.: 2140 ± 121 c.p.m.
interleukin-1; adherent cell in spleen cells, 7 days after 25 mg/kg oral
  Uptake of 3H-TdR, T/C %: 114.1%
interleukin-1; adherent cell in spleen cells, 7 days after 25 mg/kg oral, control 2091 ± 481
  Uptake of 3H-TdR, c.p.m. ± S.D.: 2385 ± 134 c.p.m.
interleukin-1; summary in words
  enhance the in vivo production of interleukin-1: effective
interleukin-1; whole PEC, 1 day after 25 mg/kg oral
  Uptake of 3H-TdR, T/C %: 61.3%
interleukin-1; whole PEC, 1 day after 25 mg/kg oral, control 7166 ± 752, **
  Uptake of 3H-TdR, c.p.m. ± S.D.: 4393 ± 397 c.p.m.
interleukin-1; whole PEC, 3 days after 25 mg/kg oral
  Uptake of 3H-TdR, T/C %: 83.6%
interleukin-1; whole PEC, 3 days after 25 mg/kg oral, control 7166 ± 752
  Uptake of 3H-TdR, c.p.m. ± S.D.: 5988 ± 602 c.p.m.
interleukin-1; whole PEC, 5 days after 25 mg/kg oral
  Uptake of 3H-TdR, T/C %: 391.7%
interleukin-1; whole PEC, 5 days after 25 mg/kg oral, control 7166 ± 752, ***
  Uptake of 3H-TdR, c.p.m. ± S.D.: 28072 ± 1174 c.p.m.
interleukin-1; whole PEC, 7 days after 25 mg/kg oral
  Uptake of 3H-TdR, T/C %: 54.5%
Toxicity to mammalian
  toxicity to mammalian: low toxicity to mammalian; also recorded: without showing any observable toxicity to mammalian
